Assay results reported in patent publication US7795218B2, “ADP-ribosyl transferase fusion variant proteins” (priority 2003, dated 2010).

Columns and labels:
Assay type in all cases: cell-based, human
HUVEC [1] = experiment: HUVEC proliferation (Alamar blue); conditions: up to 100 μg/mL (or μM), 24 hr or 72 hr
Method: FIG. 32 illustrates that SEQ ID NO: 10 affects HUVEC proliferation at high concentration, wherein HUVEC were plated in 96 wells (collagen 1-coated) and incubated during 24 h or 72 with 0 to 100 μg/mL (or μM) of SEQ ID NO: 10, Fasudil or Tranilast, cells from 4 h and 24 h were washed out and replenished with fresh media containing no test compounds and left until 72 hours, and at the end of treatment (72 hours) Alamar blue was added, incubated for 4 hours and fluorescence was measured. Proliferation is represented in a graph as a percentage of that from untreated cells (0 μg/mL)±S.D. and represents 2 independent studies analyzed in triplicate;
Given that SEQ ID NO: 10 efficiently ribosylates RhoA and therefore inhibits its activity under these conditions, it appears that the proliferation of HUVEC in this system, along with this part of the angiogenic sequence, proceeds independently of RhoA activity. In contrast, HUVEC proliferation seems to depend on Rho kinase activity as well as on the activity of those targets, possibly including protein kinase C, blocked by Tranilast.

HUVEC [2] = experiment: HUVEC tube formation on ECmatrix; conditions: 50 μM
Method: FIG. 31 illustrates that SEQ ID NO: 10 decreases tube formation in HUVEC, wherein HUVEC were seeded on solidified ECmatrix™ without (Control) or with 10 μg/mL or 50 μg/mL of SEQ ID NO: 10 or the angiogenesis inhibitor Tranilast, cells were also incubated with 10 μM or 50 μM of the ROCK inhibitor Fasudil, capillary-like structures were visualized between 6 h to 20 h incubation, and wherein in (A) photographs were taken under phase contrast inverted microscope at 40× magnification and (B) quantification of tube length was reported as percentage of the length from untreated cells SEM (photographs and quantification are representative of at least 2 independent experiments analyzed in triplicate; symbols * and ** represent respectively significant (p<0.05) and highly significant (p<0.01) difference from untreated cells);
Referring to FIG. 31, to evaluate the importance of the signalling pathway Rho-Rock in angiogenesis, Transilat (10 μg/ml and 50 μg/ml) is used as a positive control. Transilat is known to block one of the principal angiogenesis routes i.e. the VEGF pathway. The binding of VEGF to VEGF-R stimulates tyrosine auto-phosphorylation of one of the receptors which initiates a signalling pathway, in part through PKC. Tranilast acts by inhibiting VEGF dependent PKC activation. […]

HUVEC [3] = experiment: VEGF-dependent HUVEC migration (transwell); conditions: 20 hours
Method: FIG. 33 illustrates that SEQ ID NO: 10 can modify VEGF-dependent HUVEC migration, wherein in (A) HUVEC were seeded into 24-well-fibronectin-coated transwell chambers containing SEQ ID NO: 10, Fasudil or Tranilast, migration was stimulated for 20 hours with 10 ng/mL of VEGF with or without test compound, migrated cells were measured by fluorescence using Calcein-AM as a probe, and in (B) HUVEC were pre-treated for 24 hours with 50 μg/mL of SEQ ID NO: 10 prior to the start of migration (results are expressed as a percentage of that from untreated cells stimulated with VEGF±SEM and represent 4 independent experiments analyzed in duplicate; symbols * and *** represent, respectively, significant (p<0.05) and highly significant (p<0.001) difference from untreated cells+VEGF (Control+VEGF); symbol # # # represents significant difference (p<0.001) from untreated cells−VEGF (Control−VEGF));
Another cellular function and part of the angiogenic process that is known to be perturbed by Rho GTPase inhibition is endothelial cell migration. In order to evaluate the effect of SEQ ID NO: 10 on HUVEC migration, cells are seeded in the upper side of a transwell insert along with the desired test compounds, and migration is then induced with 10 ng/mL of VEGF at the bottom side of the insert. After 20 hours of migration, cells that pass through the membrane of the insert are labeled with calcein AM probe and detected via fluorescence. […].

Row | SMILES | HUVEC proliferation (HUVEC [1]) | decrease of tube formation (HUVEC [2]) [%] | decrease of VEGF-induced HUVEC migration (HUVEC [3]; 50 μM) [%] | decrease of VEGF-induced HUVEC migration (HUVEC [3]; 10 μg/mL) [%] | decrease of VEGF-induced HUVEC migration (HUVEC [3]; 50 μg/mL) [%]
1 | O=S(=O)(c1cccc2cnccc12)N1CCCNCC1 [Fasudil] | significant (p<0.01) reductions in HUVEC cell proliferation | 58 | 66 | – | –
2 | COc1ccc(/C=C/C(=O)Nc2ccccc2C(=O)O)cc1OC [Tranilast] | – | – | – | 45 | 72
